Results taken from the NIST ThermoML archive (doi:10.1016/j.jct.2017.03.006).

Test: xn = mol fraction of the nth substance listed
Conditions: Liquid; for viscosity: Concentric cylinders viscometry; for mass density: Vibrating tube method

Cc1ccc(C)c(C)c1 [1,2,4-trimethylbenzene] + CCC(C)O
Conditions | mass density [kg/m3] | viscosity [mPa·s]
323.15 K, 100 kPa, x2 = 0.7001 | – | 0.78
323.15 K, 100 kPa, x2 = 0.7997 | – | 0.88
323.15 K, 100 kPa, x2 = 0.9001 | – | 1.04
333.15 K, 100 kPa, x2 = 0 | 843.6 | 0.562
333.15 K, 100 kPa, x2 = 0.1 | 835.7 | –
333.15 K, 100 kPa, x2 = 0.1001 | – | 0.558
333.15 K, 100 kPa, x2 = 0.1989 | 829.2 | –
333.15 K, 100 kPa, x2 = 0.2261 | – | 0.554
333.15 K, 100 kPa, x2 = 0.3 | – | 0.548
333.15 K, 100 kPa, x2 = 0.3011 | 822.5 | –
333.15 K, 100 kPa, x2 = 0.3966 | – | 0.568
333.15 K, 100 kPa, x2 = 0.4002 | 816 | –
333.15 K, 100 kPa, x2 = 0.5001 | 809.8 | –
333.15 K, 100 kPa, x2 = 0.5298 | – | 0.567
333.15 K, 100 kPa, x2 = 0.5997 | 802.2 | –
333.15 K, 100 kPa, x2 = 0.6001 | – | 0.6
333.15 K, 100 kPa, x2 = 0.6999 | 794.7 | –
333.15 K, 100 kPa, x2 = 0.7001 | – | 0.65
333.15 K, 100 kPa, x2 = 0.7997 | – | 0.72
333.15 K, 100 kPa, x2 = 0.7999 | 787.1 | –
333.15 K, 100 kPa, x2 = 0.9 | 779.1 | –
333.15 K, 100 kPa, x2 = 0.9001 | – | 0.82
333.15 K, 1000 kPa, x2 = 0 | 844.4 | –
333.15 K, 1000 kPa, x2 = 0.1 | 836.5 | –
333.15 K, 1000 kPa, x2 = 0.1989 | 830 | –
333.15 K, 1000 kPa, x2 = 0.3011 | 823.3 | –
333.15 K, 1000 kPa, x2 = 0.4002 | 816.8 | –
333.15 K, 1000 kPa, x2 = 0.5001 | 810.7 | –
333.15 K, 1000 kPa, x2 = 0.5997 | 803.1 | –
333.15 K, 1000 kPa, x2 = 0.6999 | 795.6 | –
333.15 K, 1000 kPa, x2 = 0.7999 | 788 | –
333.15 K, 1000 kPa, x2 = 0.9 | 780 | –
333.15 K, 2000 kPa, x2 = 0 | 845.2 | –
333.15 K, 2000 kPa, x2 = 0.1 | 837.4 | –
333.15 K, 2000 kPa, x2 = 0.1989 | 830.9 | –
333.15 K, 2000 kPa, x2 = 0.3011 | 824.2 | –
333.15 K, 2000 kPa, x2 = 0.4002 | 817.8 | –
333.15 K, 2000 kPa, x2 = 0.5001 | 811.7 | –
333.15 K, 2000 kPa, x2 = 0.5997 | 804 | –
333.15 K, 2000 kPa, x2 = 0.6999 | 796.6 | –
333.15 K, 2000 kPa, x2 = 0.7999 | 789 | –
333.15 K, 2000 kPa, x2 = 0.9 | 781 | –
333.15 K, 5000 kPa, x2 = 0 | 847.6 | –
333.15 K, 5000 kPa, x2 = 0.1 | 840 | –
333.15 K, 5000 kPa, x2 = 0.1989 | 833.5 | –
333.15 K, 5000 kPa, x2 = 0.3011 | 826.9 | –
333.15 K, 5000 kPa, x2 = 0.4002 | 820.4 | –
333.15 K, 5000 kPa, x2 = 0.5001 | 814.4 | –
333.15 K, 5000 kPa, x2 = 0.5997 | 806.9 | –
333.15 K, 5000 kPa, x2 = 0.6999 | 799.5 | –
333.15 K, 5000 kPa, x2 = 0.7999 | 791.9 | –
333.15 K, 5000 kPa, x2 = 0.9 | 784 | –
333.15 K, 10000 kPa, x2 = 0 | 851.4 | –
333.15 K, 10000 kPa, x2 = 0.1 | 843.9 | –
333.15 K, 10000 kPa, x2 = 0.1989 | 837.6 | –
333.15 K, 10000 kPa, x2 = 0.3011 | 831.1 | –
333.15 K, 10000 kPa, x2 = 0.4002 | 824.7 | –
333.15 K, 10000 kPa, x2 = 0.5001 | 818.7 | –
333.15 K, 10000 kPa, x2 = 0.5997 | 811.3 | –
333.15 K, 10000 kPa, x2 = 0.6999 | 803.9 | –
333.15 K, 10000 kPa, x2 = 0.7999 | 796.5 | –
333.15 K, 10000 kPa, x2 = 0.9 | 788.6 | –
333.15 K, 15000 kPa, x2 = 0 | 855.1 | –
333.15 K, 15000 kPa, x2 = 0.1 | 847.9 | –
333.15 K, 15000 kPa, x2 = 0.1989 | 841.6 | –
333.15 K, 15000 kPa, x2 = 0.3011 | 835.1 | –
333.15 K, 15000 kPa, x2 = 0.4002 | 828.8 | –
333.15 K, 15000 kPa, x2 = 0.5001 | 822.9 | –
333.15 K, 15000 kPa, x2 = 0.5997 | 815.5 | –
333.15 K, 15000 kPa, x2 = 0.6999 | 808.2 | –
333.15 K, 15000 kPa, x2 = 0.7999 | 800.8 | –
333.15 K, 15000 kPa, x2 = 0.9 | 793 | –
333.15 K, 20000 kPa, x2 = 0 | 858.6 | –
333.15 K, 20000 kPa, x2 = 0.1 | 851.6 | –
333.15 K, 20000 kPa, x2 = 0.1989 | 845.4 | –
333.15 K, 20000 kPa, x2 = 0.3011 | 839 | –
333.15 K, 20000 kPa, x2 = 0.4002 | 832.7 | –
333.15 K, 20000 kPa, x2 = 0.5001 | 826.9 | –
333.15 K, 20000 kPa, x2 = 0.5997 | 819.5 | –
333.15 K, 20000 kPa, x2 = 0.6999 | 812.3 | –
333.15 K, 20000 kPa, x2 = 0.7999 | 805 | –
333.15 K, 20000 kPa, x2 = 0.9 | 797.2 | –
333.15 K, 30000 kPa, x2 = 0 | 865.3 | –
333.15 K, 30000 kPa, x2 = 0.1 | 858.6 | –
333.15 K, 30000 kPa, x2 = 0.1989 | 852.5 | –
333.15 K, 30000 kPa, x2 = 0.3011 | 846.2 | –
333.15 K, 30000 kPa, x2 = 0.4002 | 840.1 | –
333.15 K, 30000 kPa, x2 = 0.5001 | 834.4 | –
333.15 K, 30000 kPa, x2 = 0.5997 | 827.1 | –
333.15 K, 30000 kPa, x2 = 0.6999 | 819.9 | –
333.15 K, 30000 kPa, x2 = 0.7999 | 812.7 | –
333.15 K, 30000 kPa, x2 = 0.9 | 805 | –
333.15 K, 40000 kPa, x2 = 0 | 871.6 | –
333.15 K, 40000 kPa, x2 = 0.1 | 865.1 | –
333.15 K, 40000 kPa, x2 = 0.1989 | 859.1 | –
333.15 K, 40000 kPa, x2 = 0.3011 | 852.9 | –
333.15 K, 40000 kPa, x2 = 0.4002 | 846.8 | –
333.15 K, 40000 kPa, x2 = 0.5001 | 841.2 | –
333.15 K, 40000 kPa, x2 = 0.5997 | 834.1 | –
333.15 K, 40000 kPa, x2 = 0.6999 | 826.9 | –
